Results as given in patent US20210236476A1, “METHODS OF TREATING CANCER WITH SMALL MOLECULE PD-L1 INHIBITORS” (CHEMOCENTRYX, INC., priority 2018, published 2021).

What follows are compounds tested against T1, human PD-L1 / human PD-1 interaction (Homo sapiens, UniProt Q9NZQ7) (assay: ELISA of PD-1/PD-L1 interaction).
T1 construct: purchased R&D (PD-L1); ACRO Biosystems (PD-1, biotin)
Type: binding
Experimental: The activity of Compound 1.041 was assessed with an ELISA assay assessing the direct binding of recombinant PD-1 and PD-L1 proteins (FIG. 1A), a dimerization ELISA assay assessing the direct binding/dimerization of recombinant PD-L1 proteins (FIG. 1B), a cell based assay measuring the downstream signaling following the interaction of PD-1 and PD-L1 using a Luciferase reporter assay with cell lines overexpressing PD-1 and PD-L1 (FIG. 1C), and a mixed lymphocyte reaction assay measuring the functional outcome of upregulation of IFNg secretion, using allogenic primary human immune cells (FIG. 1D). Briefly, the mixed lymophocyte reaction assay was performed as follows: Dendritic cells and CD4+T Cells from unmatched donors were cultured together for 5 days in 96 well-flat bottom plates. Test compound was added as indicated at starting concentration of 1 μM with 1:4 dilutions with DMSO. Supernatants were harvested after 5 days of incubation and detection of human IFNg was performed by ELISA. […]
96 Well plates were coated with 1 μg/mL of human PD-L1 (obtained from R&D) in
PBS overnight at 4° C. The wells were then blocked with 2% BSA in PBS (WN) with 0.05% TWEEN-20 for 1 hour at 37° C. The plates were washed 3 times with PBS/0.05% TWEEN-20 and the compounds were serial diluted (1:5) in dilution medium and added to the ELISA plates. Human PD-1 and biotin 0.3μg/mL (ACRO Biosystems) were added and incubated for 1 hour at 37° C. then washed 3 times with PBS/0.05% TWEEN-20. A second block was performed with 2% BSA in PBS (WN)/0.05% TWEEN-20 for 10 min at 37° C. and was washed 3 times with PBS/0.05% TWEEN-20. Streptavidin—HRP was added for 1 hour at 37° C. then washed 3 times with PBS/0.05% TWEEN-20. TMB substrate was added and reacted for 20 min at 37° C. A stop solution (2 N aqueous H2SO4) was added. The absorbance was read at 450 nm using a micro-plate spectrophotometer.

T1 sequence (Q9NZQ7 19-239 limits assumed): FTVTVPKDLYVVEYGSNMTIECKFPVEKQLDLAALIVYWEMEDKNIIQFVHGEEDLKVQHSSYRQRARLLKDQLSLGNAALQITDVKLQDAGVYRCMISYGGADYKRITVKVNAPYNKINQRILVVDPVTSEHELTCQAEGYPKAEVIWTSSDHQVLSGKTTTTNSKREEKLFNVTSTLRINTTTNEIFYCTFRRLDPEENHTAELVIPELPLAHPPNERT

Compound | IC50
C[C@@H](O)[C@H](NCc1cc(Cl)c(O[C@H]2CCc3c(-c4cccc(OCCCN5CC(O)C5)c4Cl)cccc32)cc1OCc1cncc(C#N)c1)C(=O)O | < 5 nM
CCOc1cc(O[C@H]2CCc3c(-c4cccc(OCCCN5CC[C@@H](O)C5)c4C)cccc32)c(Cl)cc1CNC(CO)CO | < 5 nM
Cc1c(OCCCN2CC[C@@H](O)[C@H](F)C2)cccc1-c1cccc2c1CC[C@@H]2Oc1cc(OCc2cncc(C#N)c2)c(CN[C@H](C(=O)O)[C@@H](C)O)cc1Cl | 5 to 500 nM
Cc1c(OCCCN2CCC(O)CC2)cccc1-c1cccc2c1CC[C@@H]2Oc1cc(OCc2cc(C#N)cc(C#N)c2)c(CN[C@@H]2CCCC[C@@H]2O)cc1Cl | < 5 nM
CCOc1cc(O[C@H]2CCc3c(-c4cccc(OCCCN5CCC(F)CC5)c4C)cccc32)c(Cl)cc1CN[C@@H](CO)C(=O)O | < 5 nM
Cc1c(OCCCN2CCC(F)(F)CC2)cccc1-c1cccc2c1CC[C@@H]2Oc1cc(OCc2cncc(C#N)c2)c(CN[C@H](C(=O)O)[C@@H](C)O)cc1Cl | 5 to 500 nM
Cc1c(OCCCN2CCC(C)CC2)cccc1-c1cccc2c1CC[C@@H]2Oc1cc(OCc2cc(C#N)cc(C#N)c2)c(CNC[C@@H]2CCC(=O)N2)cc1Cl | < 5 nM
N#Cc1cncc(COc2cc(O[C@H]3CCc4c(-c5cccc(OCCCN6CC(O)C6)c5Cl)cccc43)c(Cl)cc2CN2CC(O)C2)c1 | < 5 nM
Cc1c(OCCCN2C3CCC2CC(O)C3)cccc1-c1cccc2c1CC[C@@H]2Oc1cc(OCc2cncc(C#N)c2)c(CNCC2CCC(=O)N2)cc1Cl (stereo partly shown) | < 5 nM
Cc1c(OCCCN2C(C)CC2C)cccc1-c1cccc2c1CC[C@@H]2Oc1cc(OCc2cc(C#N)cc(C#N)c2)c(CN[C@H]2CCC(=O)NC2)cc1Cl (stereo partly shown) | < 5 nM
CCOc1cc(O[C@H]2CCc3c(-c4cccc(OCCCN5CCC5(C)C)c4C)cccc32)c(Cl)cc1CN(C)CCCC(=O)O | < 5 nM
N#Cc1cncc(COc2cc(O[C@H]3CCc4c(-c5cccc(OCCCN6CC[C@H](F)C6)c5Cl)cccc43)c(Cl)cc2CN[C@@H]2CCCC[C@@H]2O)c1 | < 5 nM
Cc1c(OCCCN2CCC(F)CC2)cccc1-c1cccc2c1CC[C@@H]2Oc1cc(OCc2cncc(C#N)c2)c(CN[C@H](C(=O)O)[C@@H](C)O)cc1Cl | < 5 nM
N#Cc1cncc(COc2cc(O[C@H]3CCc4c(-c5cccc(OCCCN6CCC(F)CC6)c5Cl)cccc43)c(Cl)cc2CN[C@@H]2CCOC[C@@H]2O)c1 | < 5 nM
C[C@@](CO)(NCc1cc(Cl)c(O[C@@H]2c3cccc(-c4cccc(OCCCN5CC(F)C5)c4Cl)c3C[C@@H]2F)cc1OCc1cncc(C#N)c1)C(=O)O | < 5 nM
Cc1c(OCCCN2CCC(O)CC2)cccc1-c1cccc2c1CC[C@@H]2Oc1cc(OCc2cncc(C#N)c2)c(CN2CC(O)C2)cc1Cl | < 5 nM
CC(C)OC(=O)[C@](C)(CO)NCc1cc(Cl)c(O[C@H]2CCc3c(-c4cccc(OCCCN5CC(O)C5)c4Cl)cccc32)cc1OCc1cncc(C#N)c1 | < 5 nM
N#Cc1cncc(COc2cc(O[C@H]3CCc4c(-c5cccc(OCCCN6CC(O)C6)c5Cl)cccc43)c(Cl)cc2CN2CC[C@@H](O)C2)c1 | < 5 nM
Cc1c(OCCCN2CCC(O)CC2(C)C)cccc1-c1cccc2c1CC[C@@H]2Oc1cc(OCc2cc(C#N)cc(C#N)c2)c(CN[C@H]2CCC(=O)NC2)cc1Cl (stereo partly shown) | < 5 nM
C[C@@](CO)(NCc1cc(Cl)c(O[C@@H]2c3cccc(-c4cccc(OCCCN5CC(O)C5)c4Cl)c3C[C@@H]2F)cc1OCc1cc(C#N)cc(C#N)c1)C(=O)O | < 5 nM
Cc1c(OCCCN2CCC[C@H](O)C2)cccc1-c1cccc2c1CC[C@@H]2Oc1cc(OCc2cncc(C#N)c2)c(CN[C@H](C(=O)O)[C@@H](C)O)cc1Cl | < 5 nM
N#Cc1cncc(COc2cc(O[C@H]3CCc4c(-c5cccc(OCCCN6CC7(CC(O)C7)C6)c5Cl)cccc43)c(Cl)cc2CN[C@@H]2CCC[C@@H]2O)c1 | < 5 nM
N#Cc1cncc(COc2cc(O[C@H]3CCc4c(-c5cccc(OCCCN6CCC(O)CC6)c5Cl)cccc43)c(Cl)cc2CNC[C@H]2CCC(=O)N2)c1 | < 5 nM
Cc1c(OCCCN2[C@H](C)CC[C@H]2C)cccc1-c1cccc2c1CC[C@@H]2Oc1cc(OCc2cc(C#N)cc(C#N)c2)c(CN[C@H]2CCC(=O)NC2)cc1Cl | < 5 nM
Cc1c(OCCCN2CC(F)C2)cccc1-c1cccc2c1CC[C@@H]2Oc1cc(OCc2cncc(C#N)c2)c(CNCC2CCC(=O)N2)cc1Cl (stereo partly shown) | < 5 nM
Cc1c(OCCCN2CCC(F)CC2)cccc1-c1cccc2c1CC[C@@H]2Oc1cc(OCc2cncc(C#N)c2)c(CNC[C@H]2CCC(=O)N2)cc1Cl | < 5 nM

Compound | IC50
Cc1c(OCCCN2CCC2)cccc1-c1cccc2c1CC[C@@H]2Oc1cc(OCc2cc(C#N)cc(C#N)c2)c(CNC[C@H]2CCC(=O)N2)cc1Cl | < 5 nM
N#Cc1cncc(COc2cc(O[C@H]3CCc4c(-c5cccc(OCCCN6CC7(CC(F)C7)C6)c5Cl)cccc43)c(Cl)cc2CN[C@@H]2CCCC[C@@H]2O)c1 | < 5 nM
C[C@@](CO)(NCc1cc(Cl)c(O[C@H]2CCc3c(-c4cccc(OCCCN)c4Cl)cccc32)cc1OCc1cncc(C#N)c1)C(=O)O | < 5 nM
C[C@@](CO)(NCc1cc(Cl)c(O[C@H]2CCc3c(-c4cccc(OCCCN5CCC(O)CC5)c4F)cccc32)cc1OCc1cncc(C#N)c1)C(=O)O | < 5 nM
C[C@@H](O)[C@H](NCc1cc(Cl)c(O[C@H]2CCc3c(-c4cccc(OCCCN5CC(O)C5)c4Cl)cccc32)cc1OCc1cncc(C#N)c1)C(=O)NS(C)(=O)=O | < 5 nM
N#Cc1cncc(COc2cc(O[C@H]3CCc4c(-c5cccc(OCCCN6CC(O)C6)c5Cl)cccc43)c(Cl)cc2CN[C@@H]2CCCC[C@@H]2O)c1 | < 5 nM
CCN1CCC(COc2cccc(-c3cccc4c3CC[C@@H]4Oc3cc(OCc4cncc(C#N)c4)c(CN[C@H]4CCC(=O)NC4)cc3Cl)c2Cl)C1 (stereo partly shown) | < 5 nM
CN1CCC(COc2cccc(-c3cccc4c3CC[C@@H]4Oc3cc(OCc4cncc(C#N)c4)c(CNC[C@H]4CCC(=O)N4)cc3Cl)c2Cl)C1 (stereo partly shown) | < 5 nM
CC(CO)(NCc1cc(Cl)c(O[C@H]2CCc3c(-c4cccc(OCCCN5CC6(CC(F)C6)C5)c4Cl)cccc32)cc1OCc1cncc(C#N)c1)C(=O)O (stereo partly shown) | < 5 nM
Cc1c(OCCCN2CCC(O)CC2)cccc1-c1cccc2c1CC[C@@H]2Oc1cc(OCc2cc(C#N)cc(C#N)c2)c(CN[C@@](C)(CO)C(=O)O)cc1Cl | < 5 nM
Cc1c(OCCCN2CC3(CC(O)C3)C2)cccc1-c1cccc2c1CC[C@@H]2Oc1cc(OCc2cncc(C#N)c2)c(CN[C@H](C(=O)O)[C@@H](C)O)cc1Cl | < 5 nM
CCOc1cc(O[C@H]2CCc3c(-c4cccc(OCCCN5CCC(O)CC5)c4C)cccc32)c(Cl)cc1CN[C@@H](CO)C(=O)O | < 5 nM
CCOc1cc(O[C@H]2CCc3c(-c4cccc(OCCCN(C)C(C)C)c4C)cccc32)c(Cl)cc1CNC[C@@H]1CCC(=O)N1 | < 5 nM
Cc1c(OCCCN2CCC(O)CC2)cccc1-c1cccc2c1CC[C@@H]2Oc1cc(OCc2cncc(C#N)c2)c(CN[C@H](C(N)=O)[C@@H](C)O)cc1Cl | < 5 nM
N#Cc1cncc(COc2cc(O[C@H]3CCc4c(-c5cccc(OCCCN6CC7(C6)CC(F)(F)C7)c5Cl)cccc43)c(Cl)cc2CN[C@@H]2CCC[C@@H]2O)c1 | < 5 nM
Cc1c(OCCCN2CCCCC2)cccc1-c1cccc2c1CC[C@@H]2Oc1cc(OCc2cncc(C#N)c2)c(CNC[C@@H]2CCC(=O)N2)cc1Cl | < 5 nM
N#Cc1cncc(COc2cc(O[C@H]3CCc4c(-c5cccc(OCCCN6CCCCC6)c5Cl)cccc43)c(Cl)cc2CNC[C@H]2CCC(=O)N2)c1 | < 5 nM
N#Cc1cncc(COc2cc(O[C@H]3CCc4c(-c5cccc(OCCCN6CCC(O)CC6)c5Cl)cccc43)c(Cl)cc2CNC(CO)CO)c1 | < 5 nM
N#Cc1cncc(COc2cc(O[C@H]3CCc4c(-c5cccc(OCCCN6CC7(C6)CC(F)(F)C7)c5Cl)cccc43)c(Cl)cc2CN[C@@H]2CC[C@H]2O)c1 | < 5 nM
Cc1c(OCCCN2CCC(O)CC2)cccc1-c1cccc2c1CC[C@@H]2Oc1cc(OCc2cncc(C#N)c2)c(CN2CCC(C)(O)CC2)cc1Cl | < 5 nM
CCOc1cc(O[C@H]2CCc3c(-c4cccc(OCCCN5CCC(O)CC5)c4C)cccc32)c(Cl)cc1CN[C@H](C(=O)O)[C@@H](C)O | < 5 nM
Cc1c(OCCCN2CCCC2(C)C)cccc1-c1cccc2c1CC[C@@H]2Oc1cc(OCc2cc(C#N)cc(C#N)c2)c(CN[C@H]2CCC(=O)NC2)cc1Cl | < 5 nM
N#Cc1cncc(COc2cc(O[C@H]3CCc4c(-c5cccc(OCCCN6CC7(C6)CC(F)(F)C7)c5Cl)cccc43)c(Cl)cc2CN[C@@H]2CCC[C@H]2O)c1 | < 5 nM
Cc1c(OCCCN2CC(C)(O)C2)cccc1-c1cccc2c1CC[C@@H]2Oc1cc(OCc2cncc(C#N)c2)c(CNCC2CCC(=O)N2)cc1Cl (stereo partly shown) | < 5 nM
N#Cc1cncc(COc2cc(O[C@H]3CCc4c(-c5cccc(OCCCN6CC7(CC(F)C7)C6)c5Cl)cccc43)c(Cl)cc2CN[C@H]2CCC[C@H]2O)c1 | < 5 nM
N#Cc1cncc(COc2cc(O[C@H]3CCc4c(-c5cccc(OCCCN6CC7(C6)CC(F)(F)C7)c5Cl)cccc43)c(Cl)cc2CN[C@H]2CCC[C@@H]2O)c1 | < 5 nM
